{"source": "patent US10351568B2", "about": "“Compositions and methods for enhancing proteasome activity” (President and Fellows of Harvard College, priority 2010, dated 2019)", "key": {"[1]": {"target": "T1, Usp14/26S proteasome complexes (Homo sapiens, UniProt P54578)", "T1 construct": "GST (N, cleaved yes); made in house; host or cells: E. coli Rosetta 2 (DE3) for Usp14", "experiment": "Ub-AMC hydrolysis by VS-proteasomes reconstituted with recombinant Usp14", "type": "biochemical"}, "Usp14": {"target": "Usp14 (Homo sapiens, UniProt P54578)", "sequence (P54578 whole entry)": "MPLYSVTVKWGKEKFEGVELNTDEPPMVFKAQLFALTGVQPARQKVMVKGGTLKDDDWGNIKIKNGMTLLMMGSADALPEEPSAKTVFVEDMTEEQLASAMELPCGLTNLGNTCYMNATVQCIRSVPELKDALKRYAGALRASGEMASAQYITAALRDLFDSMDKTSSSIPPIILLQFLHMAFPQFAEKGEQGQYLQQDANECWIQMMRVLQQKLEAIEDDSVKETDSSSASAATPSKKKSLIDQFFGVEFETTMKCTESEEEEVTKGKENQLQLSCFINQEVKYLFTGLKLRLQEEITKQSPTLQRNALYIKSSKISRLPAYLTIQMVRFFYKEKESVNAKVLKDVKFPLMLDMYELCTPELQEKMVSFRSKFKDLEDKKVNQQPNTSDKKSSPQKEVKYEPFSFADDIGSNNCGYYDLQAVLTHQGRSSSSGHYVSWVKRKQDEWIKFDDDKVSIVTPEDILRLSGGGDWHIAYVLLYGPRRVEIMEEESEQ", "experiment": "Mass spectrometry analysis of IU1 inhibited Usp14", "type": "binding"}, "[2]": {"system": "eight deubiquitinating enzymes of human origin", "experiment": "Deubiquitinase selectivity panel (Ub-AMC hydrolysis)", "type": "biochemical", "details": "17 μM"}, "[3]": {"target": "T2, proteasome-bound form of Uch37 (Homo sapiens, UniProt Q9Y5K5)", "T2 construct": "endogenous in cells", "experiment": "Ub-AMC hydrolysis by 26S proteasomes not treated with Ub-VS (lacking Usp14)", "type": "biochemical"}, "Isopeptidase T (IsoT)": {"target": "Isopeptidase T (IsoT) (Homo sapiens, UniProt P45974)", "sequence (P45974 whole entry)": "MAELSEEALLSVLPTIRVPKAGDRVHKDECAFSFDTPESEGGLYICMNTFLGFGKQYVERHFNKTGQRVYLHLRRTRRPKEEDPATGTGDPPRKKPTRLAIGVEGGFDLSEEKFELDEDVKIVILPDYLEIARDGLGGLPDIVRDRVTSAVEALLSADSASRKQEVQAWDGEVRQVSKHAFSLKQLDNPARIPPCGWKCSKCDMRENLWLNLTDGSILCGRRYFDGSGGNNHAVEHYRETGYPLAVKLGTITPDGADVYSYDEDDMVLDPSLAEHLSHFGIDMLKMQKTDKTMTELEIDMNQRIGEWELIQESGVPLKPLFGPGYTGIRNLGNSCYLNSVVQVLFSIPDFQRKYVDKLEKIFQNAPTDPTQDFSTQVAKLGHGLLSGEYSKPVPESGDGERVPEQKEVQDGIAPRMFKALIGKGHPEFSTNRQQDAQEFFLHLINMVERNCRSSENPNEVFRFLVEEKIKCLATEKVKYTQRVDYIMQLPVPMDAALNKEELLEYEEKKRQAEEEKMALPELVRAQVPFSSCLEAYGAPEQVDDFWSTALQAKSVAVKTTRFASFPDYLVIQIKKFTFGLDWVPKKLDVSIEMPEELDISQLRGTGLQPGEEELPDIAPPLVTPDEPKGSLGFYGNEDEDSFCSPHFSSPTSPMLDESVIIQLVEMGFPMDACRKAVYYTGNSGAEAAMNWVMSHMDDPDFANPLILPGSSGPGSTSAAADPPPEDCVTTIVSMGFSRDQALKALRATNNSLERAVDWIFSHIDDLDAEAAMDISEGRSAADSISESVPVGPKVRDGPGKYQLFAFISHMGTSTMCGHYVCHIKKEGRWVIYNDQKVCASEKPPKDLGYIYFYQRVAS", "experiment": "Isopeptidase T deubiquitinase activity", "type": "biochemical", "details": "8 μM, 17 μM"}, "[4]": {"target": "T3, Usp14 that had not been loaded onto a proteasome (Homo sapiens, UniProt P54578)", "T3 construct": "GST (N, cleaved yes); made in house; host or cells: E. coli Rosetta 2 (DE3)", "T3 sequence (P54578 whole entry)": "as the sequence (P54578 whole entry) above", "experiment": "Activity of Usp14 not complexed to the proteasome", "type": "biochemical"}, "[5]": {"target": "T4, Usp14/proteasome complexes (Homo sapiens, UniProt P54578)", "T4 construct": "GST (N, cleaved yes); made in house; host or cells: E. coli Rosetta 2 (DE3) for Usp14", "experiment": "Usp14 binding to purified proteasome (immunoblot)", "details": "various concentrations of IU1", "description": "The asterisk (*) denotes a nonspecific signal generated by the anti-Usp14 antibody."}, "[6]": {"target": "T4, Usp14/proteasome complexes", "experiment": "In vitro ubiquitin chain trimming assay with polyubiquitinated cyclin B", "type": "biochemical", "method": "Immunoblot was performed using an antibody specific for human cyclin B (CCNB).\n(§1) The effect of Usp14 on the degradation of ubiquitinated substrates was examined using an in vitro degradation assay using the ubiquitin-dependent proteasome substrate polyubiquitinated cyclin B (Ubn-ClnB).\nTo separate chain trimming from substrate degradation, these assays were done in the presence of proteasome inhibitors. The effectiveness of the proteasome inhibitors is evidenced by the accumulation of unmodified cyclin B in the assay (FIG. 15)."}, "[7]": {"target": "T5, Usp14-containing proteasomes (Homo sapiens, UniProt P54578)", "T5 construct": "GST (N, cleaved yes); made in house; host or cells: E. coli Rosetta 2 (DE3) for Usp14", "experiment": "In vitro Ubn-ClnB degradation assay", "type": "biochemical", "description": "as §1\nIt was next tested whether IU1 could serve as an enhancer of substrate degradation by the proteasome."}, "[8]": {"experiment": "Compound concentration in serum-containing media / release, 293 cells", "type": "in vitro ADME", "details": "1 hr to 48 hr", "method": "The experiment was performed as in FIG. 42A."}, "Tau": {"system": "Tau", "experiment": "Tau degradation in MEF cells (immunoblot, RT-PCR)", "type": "cell-based", "description": "No effect was seen on Tau mRNA levels (FIG. 21B)."}, "TDP-43": {"system": "TDP-43", "experiment": "TDP-43 depletion in MEF cells (immunoblot)", "type": "cell-based", "details": "75 μM IU1", "method": "(§2) Other proteins that have been implicated in proteotoxic mechanisms were also tested."}, "ataxin-3": {"system": "ataxin-3", "experiment": "Ataxin-3 depletion in MEF cells (immunoblot)", "type": "cell-based", "details": "50 or 100 μM IU1", "method": "as §2"}, "[9]": {"system": "glial fibrillary acidic protein (GFAP)", "experiment": "GFAP depletion in MEF cells (immunoblot)", "type": "cell-based", "details": "MEF cells, 25, 50 or 100 μM IU1", "method": "as §2"}, "GFP-ODC": {"system": "GFP-ODC", "experiment": "Degradation of ubiquitin-independent proteasome substrate in cells", "type": "cell-based", "method": "Proteasome inhibitors (30 μM MG132, 10 μM PS-341) were treated 4 hr before lysis.\nas §2"}, "oxidized proteins": {"system": "oxidized proteins", "experiment": "Oxidized protein accumulation after menadione (DNPH immunoblot)", "type": "cell-based", "details": "MEFs, 75 μM IU1 4 hours, then 63 μM menadione 45 minutes", "description": "Oxidized proteins form another class of proteasome substrates that play an important role in human health. Harmful oxidized proteins accumulate upon ageing and are implicated in a variety of age-related diseases and disorders (Stadtman (2006) Protein oxidation and aging. Free Radic. Res. 40, 1250-1258; Ahmed et al. (2007) Protein oxidative modifications and replicative senescence of WI-38 human embryonic fibroblasts. Ann. NY Acad. Sci., 1119, 88-96; Moskovitz et al. (2001). Methionine sulfoxide reductase (MsrA) is a regulator of antioxidant defense and lifespan in mammals. Proc. Nat. Acad. Sci. USA, […], 12920-12925.). Protein oxidation was induced by treating cells with menadione, and oxidized species were visualized using an antibody specific for protein carbonyls. […] The cells were lysed and lysates were incubated with DNPH and immunoblotted with anti-DNPH antibody to assay for oxidized proteins."}, "HEK293 cells": {"system": "HEK293 cells", "experiment": "MTT cell survival upon menadione oxidative stress, HEK293", "type": "cell-based, human", "details": "6 hr, menadione 4 hr"}, "MEF cells [10]": {"system": "MEF cells", "experiment": "MTT cell survival upon menadione oxidative stress, MEF", "type": "cell-based", "description": "The effect on the IC50 for menadione is almost 4-fold."}, "[11]": {"experiment": "Hydrogen peroxide toxicity", "type": "cell-based", "details": "data not shown"}, "[12]": {"system": "MEF, HEK293 and HeLa cells", "experiment": "MTT cell viability assay", "type": "cell-based", "details": "MTT after 6, 12, 24 or 48 hours", "method": "(§3) Effects on cell viability became apparent at concentrations over 100 μM, well above the doses required to enhance the degradation of Tau, TDP-43, ataxin-3, and oxidized proteins (FIGS. 21-23)."}, "MEF cells [13]": {"system": "MEF cells", "experiment": "TUNEL apoptosis assay", "type": "cell-based", "details": "100 μM IU1, 6 hr", "method": "as §3"}, "MEFs and 293 cells": {"system": "MEFs and 293 cells", "experiment": "Cell proliferation by real-time microscopy (confluency)", "type": "cell-based"}, "proteasome": {"system": "proteasome", "experiment": "Proteasome integrity by native PAGE of total cell extracts", "type": "cell-based", "details": "100 μM IU1, 6-hr", "description": "RP2-CP and RP-CP indicate distinct forms of the 26S proteasome."}, "murine Psmb5 promoter": {"system": "murine Psmb5 promoter", "experiment": "Psmb5 promoter luciferase reporter in MEFs", "type": "cell-based", "details": "wild-type and Usp14−/− MEFs, 25 or 50 μM, 8 hr", "method": "For normalization of luciferase activity, a control experiment using the promoter-less pGL3 plasmid was performed. Values are mean±SD from three independent experiments. RLU, relative light units."}, "UbB, α6, α7": {"system": "UbB, α6, α7", "experiment": "Quantitative RT-PCR of ubiquitin and proteasome subunit genes in MEFs", "type": "cell-based", "details": "+/+ and Usp14−/− MEFs, graded doses, 6 hr"}, "[14]": {"experiment": "Cellular entry, release and stability of compound (LC/MS, UV absorption)"}, "mCherry-NBR1": {"system": "mCherry-NBR1", "experiment": "mCherry-NBR1 immunofluorescence in wild-type MEFs", "type": "cell-based", "details": "200 μM, 6 hr"}}}
{"smiles": "Cc1cc(C(=O)CN2CCCC2)c(C)n1-c1ccc(F)cc1", "note": "[IU1, 1-[1-(4-fluorophenyl)-2,5-dimethlypyrrol-3-yl]-2-pyrrolidin-1-ylethanone]", "values": [{"measurement": "lag period of inhibition", "setting": "[1]; IU1 100 μM added 30 min after 1 μM Ub-AMC, 2.5 nM proteasome, 30 nM USP14", "value": "without a detectable lag period"}, {"measurement": "reversibility of inhibition of Usp14", "setting": "[1]; activity after up to three ultrafiltration spins", "value": "rapidly reversible"}, {"measurement": "inhibition of Usp14 deubiquitinase", "setting": "[1]; proteasome-bound Usp14, Ub-AMC", "value": "potent inhibitor of proteasome-bound Usp14"}, {"measurement": "covalent IU1-Usp14 adducts", "setting": "Usp14", "value": "failed to detect any covalent IU1-Usp14 adducts"}, {"measurement": "inhibition of other tested deubiquitinating enzymes", "setting": "[2]", "value": "failed to significantly inhibit"}, {"measurement": "specificity for USP14 versus Ub-AMC concentration", "setting": "[2]; lower concentrations of Ub-AMC", "value": "observed independently of Ub-AMC concentration"}, {"measurement": "inhibition of proteasome-bound Uch37", "setting": "[3]", "value": "does not inhibit"}, {"measurement": "inhibition of Isopeptidase T", "setting": "Isopeptidase T (IsoT)", "value": "lack of inhibition"}, {"measurement": "inhibition of Usp14 not complexed to the proteasome", "setting": "[4]", "value": "failed to inhibit"}, {"measurement": "effect on Usp14 complexing with the proteasome", "setting": "[5]", "value": "did not antagonize Usp14 complexing with the proteasome"}, {"measurement": "concentration effective at inhibition of chain trimming", "setting": "[6]; proteasome purified and assayed in presence of ADP", "value": "approximately 5 μM"}, {"measurement": "chain trimming, Usp14/proteasome complexes", "setting": "[6]; with Usp14, presence of proteasome inhibitors", "value": "reduced the chain trimming to a level similar to that of the proteasome complexes that lacked Usp14"}, {"measurement": "release of ubiquitin chains from cyclin B, proteasomes that lack Usp14", "setting": "[6]; without Usp14, presence of proteasome inhibitors", "value": "little or no effect"}, {"measurement": "degradation of Ub-cyclin B by Usp14-containing proteasomes", "setting": "[7]; 34 μM IU1", "value": "stimulated the activity of Usp14-containing proteasomes"}, {"measurement": "substrate degradation or chain trimming by proteasomes that lack Usp14", "setting": "[7]; 34 μM IU1", "value": "no effect"}, {"measurement": "cyclin B degradation in the presence of USP14-CA", "setting": "[7]; catalytically inactive USP14", "value": "does not affect cyclin B degradation"}, {"measurement": "concentration in serum-containing media of HEK293 cells", "setting": "[8]", "value": "comparable concentration"}, {"measurement": "Tau levels", "setting": "Tau; MEF cells, 25 to 100 μM, 6 hours", "value": "reduced Tau levels at all concentrations tested"}, {"measurement": "Tau mRNA levels", "setting": "Tau; MEF cells, 25 to 100 μM, quantitative RT-PCR", "value": "No effect"}, {"measurement": "dependence of Tau degradation stimulation on autophagy", "setting": "Tau; wild-type MEF, 75 μM IU1 and/or BafA1, 6 hrs", "value": "not mediated by autophagy"}, {"measurement": "TDP-43 level in cells", "setting": "TDP-43", "value": "similarly depleted"}, {"measurement": "ataxin-3 level in cells", "setting": "ataxin-3", "value": "similarly depleted"}, {"measurement": "GFAP level in cells", "setting": "[9]", "value": "similarly depleted"}, {"measurement": "degradation of GFP-ODC", "setting": "GFP-ODC", "value": "little or no effect"}, {"measurement": "accumulation of oxidized proteins", "setting": "oxidized proteins", "value": "reduced"}, {"measurement": "effect on the IC50 for menadione", "setting": "HEK293 cells; IU1 50 uM", "value": "~4", "unit": "fold"}, {"measurement": "menadione toxicity", "setting": "HEK293 cells; compound 50 uM", "value": "reduced this toxicity substantially"}, {"measurement": "effect on cell survival upon oxidative stress", "setting": "MEF cells [10]", "value": "show this effect as well"}, {"measurement": "hydrogen peroxide toxicity", "setting": "[11]", "value": "reduced the toxicity"}, {"measurement": "concentration at which effects on cell viability became apparent", "setting": "[12]", "value": "over 100 μM"}, {"measurement": "induction of apoptosis", "setting": "MEF cells [13]", "value": "did not noticeably induce apoptosis"}, {"measurement": "inhibition of cellular proliferation at 120 μM", "setting": "MEFs and 293 cells; 120 μM", "value": "only a slight inhibition"}, {"measurement": "inhibition of cellular proliferation at lower concentrations", "setting": "MEFs and 293 cells; below 120 μM", "value": "no apparent inhibition"}, {"measurement": "integrity of proteasome", "setting": "proteasome", "value": "does not affect the integrity of proteasome"}, {"measurement": "transcription of Psmb5 gene", "setting": "murine Psmb5 promoter", "value": "does not induce the transcription"}, {"measurement": "transcription of UbB", "setting": "UbB, α6, α7", "value": "does not induce the transcription"}, {"measurement": "transcription of α6", "setting": "UbB, α6, α7", "value": "does not induce the transcription"}, {"measurement": "transcription of α7", "setting": "UbB, α6, α7", "value": "does not induce the transcription"}, {"measurement": "time to reach steady-state concentration within cells", "setting": "[14]; 50 μM added to medium, MEFs", "value": "≤ 1", "unit": "h"}, {"measurement": "steady-state concentration within cells", "setting": "[14]; 50 μM added to medium, MEFs, LC/MS", "value": "~19", "unit": "µM"}, {"measurement": "release of internalized compound from wild-type MEF cells", "setting": "[14]; 50 μM for one hour, then fresh media", "value": "rapid release"}, {"measurement": "concentration in serum-containing media of Usp14−/− MEF cells", "setting": "[14]; 1 hr to 48 hr", "value": "comparable concentration"}]}
{"smiles": "CO/C1=C\\C(C)=C\\[C@@H](C)[C@@H](O)[C@@H](C)C/C(C)=C/C=C/[C@H](OC)[C@@H]([C@@H](C)[C@@H](O)[C@H](C)[C@@]2(O)C[C@@H](O)[C@H](C)[C@@H](C(C)C)O2)OC1=O", "note": "[bafilomycin A1]", "values": [{"measurement": "immunofluorescence signal of mCherry-NBR1", "setting": "mCherry-NBR1", "value": "significantly increased"}]}
